Consider 9 compounds from patent publication US7569569B2, “Pyrrolo[2,3-d]pyrimidine compounds” (Pfizer Inc., priority 1998, dated 2009).

One may read the melting point as the temperature, or range, at which the solid turns liquid.

For the compound `Clc1c[nH]c2ncnc(N3CCCC4CCCCC43)c12` (stereo not drawn) [Example 39, 1-(5-Chloro-7H-pyrrolo[2,3-d]pyrimidin-4-yl)-decahydro-quinoline], the melting point lay within 190 to 192 °C.
As for `Cc1cc2c(N(C)C3CCCCC3)ncnc2[nH]1` [Example 59, Cyclohexyl-methyl-(6-methyl-7H-pyrrolo[2,3-d]pyrimidin-4-yl)-amine], the figure is 221 °C (dec.).
As for `Clc1c[nH]c2ncnc(N3CCC4CCCCC43)c12` (stereo not drawn) [Example 62, 5-Chloro-4-(octahydro-indol-1-yl)-7H-pyrrolo[2,3-d]pyrimidine], the figure is 193 °C; as for `C#Cc1c[nH]c2ncnc(N3CCCCC3)c12` [Example 79, 5-Ethynyl-4-piperidin-1-yl-7H-pyrrolo[2,3-d]pyrimidine], 179 to 181 °C.
With `Clc1c[nH]c2ncnc(N3CCCCC3)c12` [Example 61, 5-Chloro-4-piperidin-1-yl-7H-pyrrolo[2,3-d]pyrimidine] the figure was 170 to 172 °C; with `N#Cc1c[nH]c2ncnc(N3CCCCC3)c12` [Example 78, 4-Piperidin-1-yl-7H-pyrrolo[2,3-d]pyrimidine-5-carbonitrile], 209 to 211 °C.
`c1nc(N2CCCCCCC2)c2cc[nH]c2n1` [Example 17, 4-Azocan-1-yl-7H-pyrrolo[2,3-d]pyrimidine] came in with a melting point of 225 to 226 °C.
Consider `CCCC1CCCCN1c1ncnc2[nH]ccc12` (stereo not drawn) [Example 24, 4-(2-Propyl-piperidin-1-yl)-7H-pyrrolo[2,3-d]pyrimidine], for which the melting point lay in the range of 106 to 107 °C.
With `c1nc(N2CCCCCC2)c2cc[nH]c2n1` [Example 27, 4-Azepan-1-yl-7H-pyrrolo[2,3-d]pyrimidine] the figure was 210 °C.
